Experimental data taken from ChEMBL document CHEMBL3639094, “Organic compounds” (2014).

Target: T1, Cholesteryl ester transfer protein (Homo sapiens, UniProt P11597)
T1 sequence (P11597 whole entry): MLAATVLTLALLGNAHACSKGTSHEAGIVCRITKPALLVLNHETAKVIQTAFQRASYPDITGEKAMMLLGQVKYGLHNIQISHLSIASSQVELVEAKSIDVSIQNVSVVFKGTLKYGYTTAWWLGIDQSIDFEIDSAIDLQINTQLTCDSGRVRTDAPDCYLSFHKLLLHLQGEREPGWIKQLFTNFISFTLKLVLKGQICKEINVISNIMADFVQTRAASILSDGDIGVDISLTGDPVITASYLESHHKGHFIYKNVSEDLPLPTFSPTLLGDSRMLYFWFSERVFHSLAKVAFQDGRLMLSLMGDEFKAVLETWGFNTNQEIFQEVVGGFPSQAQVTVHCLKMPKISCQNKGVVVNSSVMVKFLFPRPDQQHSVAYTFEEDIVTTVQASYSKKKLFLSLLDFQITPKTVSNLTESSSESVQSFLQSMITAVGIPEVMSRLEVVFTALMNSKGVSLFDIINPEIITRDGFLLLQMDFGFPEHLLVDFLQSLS
Experiment: In Vitro Assay: CETP Activity Kit (#RB-RPAK) was purchased from Roar Biochemical, Inc. (New York, N.Y., USA). To each well of a 96-well NBS half-area plate (costar #3686), 1.2 ng/well of the donor solution, 1 uL of the acceptor solution and 5 uL compound solution diluted in 100% DMSO were added in a 38 uL of buffer containing 10 mM Tris, 150 mM NaCl and 2 mM EDTA, pH 7.4. Then, the plate was sealed with Themowell Sealers (costar #6524) and followed by a mixing on a plate shaker by MICROPLATE MIXER MPX-96 (IWAKI) at power 3 for 10 sec at room temperature. After 10-min incubation at 37C., the reaction was started by adding 5 uL of rhCETP solution (Cardiovascular Target, New York, N.Y., USA) and mixed on the plate shaker for 10 sec, then the fluorescence intensity at 0 min was measured by a ARVO SX (Perkin Elmerr, USA) at excitation wavelength of 465 nm and emission wavelength of 535 nm. After 120 min-incubation at 37C., fluorescence intensity was measured again.

Row | Structure (SMILES) | IC50
1 | CC[C@@H]1C[C@H](N(Cc2cc(C(F)(F)F)cc(C(F)(F)F)c2)c2ncc(-c3cnn(C)c3)cn2)CN1c1nc(N2CCC(C(=O)O)CC2)ncc1Cl | 77 nM
2 | CC[C@@H]1C[C@H](N(Cc2cc(C(F)(F)F)cc(C(F)(F)F)c2)c2ncc(N3CCOCC3)cn2)CN1c1nc(N2CCC(C(=O)O)CC2)ncc1Cl | 130 nM
3 | CC[C@@H]1C[C@H](N(Cc2cc(C(F)(F)F)cc(C(F)(F)F)c2)c2ncc(-c3cnn(C)c3)cn2)CN1C(=O)OC(C)C | 23 nM
4 | CC[C@@H]1C[C@H](N(Cc2cc(C(F)(F)F)cc(C(F)(F)F)c2)c2ncc(-c3cnn(C)c3)cn2)CN1C(=O)OCC1(C)COC1 | 53 nM
